# Experimental data published in patent US6696493B2, “Treating chronic uremic patients undergoing periodic dialysis” (Sigma-Tau Industrie Farmaceutiche Riunite S.p.A., priority 2000, dated 2004).
# “Also recorded” adds a separate entry of the source.
# Key:
# [1] = test system: perfused heart; assay: low-pressure or low-flow ischaemia model, perfused heart (Langendorff)
# Text: In this example, the low-pressure or low-flow ischaemia model was used, which is a model recognised as valid for cardiac ischaemia (Bolukoglu, H. et al. Am. J. Physiol. 1996: 270; H817-26).
# The treatment schedule is illustrated in FIG. 1., in which the letters A-F denote the heart effluent sampling times for the measurement of metabolites. The hearts are removed from the animals and mounted on a Langerdorff appliance. The perfusion medium replacing the blood was a Krebs-Heinsleit standard bicarbonate buffer containing glucose 12 mM as energy source for cardiac metabolism.
# After 30 minute perfusion at a pressure of 100 cm of water, ischaemia was induced by reducing the perfusion pressure of the heart to 25 cm of water, thus reducing coronary flow from approximately 2 ml/min to approximately 0.3 ml/min. Reduction of the perfusion pressure gives rise to ischaemia, since the heart will pump the fluid in the low-perfusion area rather than via the coronary bloodstream, supplying the flow to the heart.
# This control model was compared with hearts perfused with L-carnitine 10 mM or L-carnitine fumarate 10 mM.
# Cardiac function was tested in three different ways.
# In the first, the NRM ^31P signal was monitored in real time.
# This signal provides the best indication of the energy status of the heart.
# In the second, the haemodynamics of the heart was measured by means of a pressure transducer mounted to measure the perfusion pressure. The haemodynamic measurements include heart rate, relative dP/dt (measurement of the contraction force of the heart) and the cardiac contraction amplitude. Coronary flow was also measured as an indicator of the heart's ability to provide oxygen and energy for its own metabolism.
# In the third type of test, the metabolites and the enzyme LDH released by the heart were analysed in the effluent. The release of LDH indicates damage to cardiac tissue. The release of metabolites by the heart was tested by means of mass spectrometry coupled with gas chromatography.
# The procedures of example 1 were substantially repeated, with the addition of a treatment with carnitine alone as a further control.
# [2] = test system: maintenance hemodialysis patients; conditions: i.v. 20 mg/kg after each dialysis session; cited from earlier work
# [3] = test system: hemodialysis patients; conditions: i.v. 20 mg/kg for six months, then 10 mg/kg, after each dialysis session; cited from earlier work
# [4] = cited from earlier work
# [5] = test system: patients; conditions: oral supplementation, cited from earlier work
# [6] = 10 mM, post-ischemic, vs control hearts
Structure (SMILES),"release of LDH in heart effluent ([1]; 10 mM in perfusion medium, low-flow ischaemia, vs control hearts, fumarate)","reserves of high-energy phosphate (creatine phosphate, 31P NMR) ([1]; 10 mM, after 45 minutes of ischaemia, vs control hearts)","malate released by the heart (effluent) ([1]; 10 mM, low-flow ischaemia, GC-MS of effluent)","lactate released by the heart (effluent) ([1]; 10 mM, low-flow ischaemia, GC-MS of effluent, fumarate)","coronary flow [1, 6]","post-ischemic cardiac contraction amplitude [1, 6]","succinate released by the heart (effluent) ([1]; Example 2, FIG. 3B, compared to lactate)",dialytic symptoms [2],effect on serum lipid profile [2],"exercise capability, sense of well being [2]",abnormal serum fatty acid profile [3],bioavailability through the oral route [4],"ATP peaks (alpha, beta, gamma phosphate, 31P NMR) ([1]; Example 2, after 40 minutes of ischaemia, FIG. 2)","quality of life, early stage of treatment ([5]; early stage of treatment)","quality of life, long term treatment ([5]; long term treatment (six months))"
"C[N+](C)(C)C[C@H](O)CC(=O)[O-].O=C(O)/C=C/C(=O)O [carnitine fumarate, L-carnitine fumarate]",reduced release of LDH; also recorded: affords protection against ischemic damage,greater in treated hearts,more malate,less lactate; also recorded: lactate reduction,greater,greater,low amount of succinate as compared to lactate,–,–,–,–,–,–,–,–
"C[N+](C)(C)C[C@H](O)CC(=O)[O-] [carnitine, L-carnitine]",–,–,–,–,–,–,–,decrease,does not seem to have a great lipid-lowering potential,improvement,partial correction,subject to saturation mechanism,lacking,effective in improving the quality of life,not sustained
